experiment: Tet-Inducible cAMP Assay: A human-mouse chimeric GPR119 expression construct encoding 3 copies of the FLAG epitope tag, the first 198 amino acids of human GPR119 and the C-terminal 137 amino acids of the mouse receptor was cloned into a tetracycline inducible vector pcDNA5/FRT/TO (Invitrogen #V6520-20), which includes a hygromycin-resistance marker. Tightly controlled receptor expression was achieved by stable integration of this construct into the genome of a specific host cell line, Flp-In-T-Rex-HEK293, expressing the tetracycline repressor (Invitrogen). Once a stable hygromycin-resistant cell line was generated, the cells were maintained at 37° C. in a humidified 5% CO2 atmosphere in culture medium consisting of Dulbecco's modified Eagle's medium (DMEM; Invitrogen #11960) supplemented with 2 mM L-glutamine, 10% fetal bovine serum, 200 μg/ml hygromycin B, and 15 μg/ml blasticidin.

Compound | EC50 [nM]
Cc1nc(-n2cc(Cl)c(OC3CCN(c4ncc(Cl)cn4)CC3)cc2=O)ccc1N1CCC(O)C1=O (stereo not drawn) | 2
Cc1nc(-n2cc(Cl)c(OC3CCN(c4ncc(Cl)cn4)CC3)cc2=O)ccc1N1CC[C@@H](O)C1=O | 3
Cc1nc(-n2ccc(OC3CCN(c4ncc(Cl)cn4)CC3)cc2=O)ccc1N1CCC(O)C1=O (stereo not drawn) | 10

Source: ChEMBL document CHEMBL3886324, “Pyrimidinylpiperidinyloxypyridone analogues as GPR119 modulators” (2015)
